Values of other authors as cited in publication PMC11956011, “An Amazing 30-Year Journey around the DABO Family: A Medicinal Chemistry Lesson on a Versatile Class of Non-nucleoside HIV-1 Reverse Transcriptase Inhibitors” (Journal of Medicinal Chemistry, 2025).
Read-outs that look alike come from different tables or passages of the source.

How the values were obtained:
[1] = system: HIV-1 RT (WT, recombinant); conditions: for IC50: read-out: IC50 (HIV-1 RT)
HIV-1 = conditions: for IC50: read-out: IC50 (HIV-1 cytopathic effect in cells)
[2] = system: Y188L HIV-1 mutant strain; conditions: for Fold-resistance Y188L (EC50): Fig 10, in brackets
[3] = system: Y181C HIV-1 mutant strain; conditions: for Fold-resistance Y181C (EC50): Fig 10, in brackets
[4] = system: K103N HIV-1 mutant strain; conditions: for Fold-resistance K103N (EC50): Fig 10, in brackets
L100I HIV-1 RT = conditions: for Fold-resistance L100I RT (ID50): Fig 10, in brackets
Y181I HIV-1 RT = conditions: for ID50: Y181I: Fig 10; for Fold-resistance Y181I RT (ID50): Fig 10, in brackets
[5] = Fig 5, read-out: EC50: NL4-3 wt
[6] = Fig 10, read-out: EC50: NL4-3 wt
[7] = read-out: EC50 against WT HIV-1

Molecule: 2-(cyclopentylthio)-6-[(1R)-1-(2,6-difluorophenyl)ethyl]-5-methyl-4(3H)-pyrimidinone [[+]-38]
- IC50 ([1]; Fig 5, printed without unit): 8 nM
- EC50 (HIV-1): 2 nM
- SI (HIV-1): > 100000
- CC50 (mock-infected cells; Fig 5): > 200000 nM

Molecule: CCOCn1c(Cc2ccccc2)c(C(C)C)c(=O)[nH]c1=O [Emivirine, reference compound]
- EC50 (HIV-1; Fig 4): 4.2 nM
- SI (HIV-1; Fig 4): 44000
- CC50 (mock-infected cells): 186000 nM

Molecule: Cc1cccc(Cc2cc(=O)[nH]c(OC3CCCCC3)n2)c1 [compound 6]
- SI (HIV-1; CC50/EC50, Fig 3): > 400

Molecule: CCC(C)Oc1nc(Cc2cc(C)cc(C)c2)c(C)c(=O)[nH]1 (centres unmarked) [compound 7]
- SI (HIV-1; CC50/EC50, Fig 3): > 400

Molecule: Nc1cc(Cl)nc(Sc2ccccc2)n1 [compound 20]
- EC50 (HIV-1; Fig 4): 90000 nM
- SI (HIV-1; Fig 4): 2.3

Molecule: CCC(C)Oc1nc(N)cc(S(=O)(=O)c2cccc(C)c2)n1 (centres unmarked) [compound 22]
- SI (HIV-1; Fig 4): > 43
- CC50 (mock-infected cells; Fig 4): > 200000 nM

Molecule: CCOC1CSc2nc(=O)c(CC)c(Cc3cc(C)cc(C)c3)n21 (centres unmarked) [compound 24]
- SI (HIV-1; CD50/ED50, Fig 4): > 140
- ED50 (HIV-1; Fig 4): 700 nM
- CD50 (mock-infected cells; Fig 4): > 100 µM

Molecule: Nc1nc2c(c(=O)[nH]1)CCC2c1ccccc1 (centres unmarked) [compound 27, 2-amino-7-phenyl-6,7-dihydro-5H-cyclopenta[d]-4(3H)-pyrimidinone]
- anti-HIV-1 activity (in words) (HIV-1): lacked anti-HIV-1 activity

Molecule: CCC(C)Sc1nc(O)cc(Cc2c(Cl)cccc2Cl)n1 (centres unmarked) [compound 28]
- IC50 ([1]; Fig 5): 100 nM
- SI (HIV-1; Fig 5): > 1428
- CC50 (mock-infected cells; Fig 5): > 200000 nM

Molecule: CCC(C)Sc1nc(O)c(C)c(Cc2c(Cl)cccc2Cl)n1 (centres unmarked) [compound 29]
- IC50 ([1]; Fig 5): 60 nM
- SI (HIV-1; Fig 5): > 4000
- CC50 (mock-infected cells; Fig 5): > 200000 nM

Molecule: CCC(C)Sc1nc(O)cc(Cc2c(F)cccc2F)n1 (centres unmarked) [compound 31]
- IC50 ([1]; Fig 5): 50 nM
- SI (HIV-1; Fig 5): > 5000
- CC50 (mock-infected cells; Fig 5): > 200000 nM

Molecule: CCC(C)Sc1nc(O)cc(C(C)c2c(F)cccc2F)n1 (centres unmarked) [compound 34]
- SI (HIV-1; Fig 5): > 6666
- EC50 (HIV-1; Fig 5, MT-4 cells): 30 nM
- CC50 (mock-infected cells; Fig 5): > 200000 nM

Molecule: CCCCSc1nc(O)c(C)c(C(C)c2c(F)cccc2F)n1 (centres unmarked) [compound 37]
- EC50 (HIV-1; Fig 5, MT-4 cells): 8 nM

Molecule: CCCCSc1nc(C(C)c2c(F)cccc2Cl)cc(=O)[nH]1 (centres unmarked) [compound 39]
- EC50 ([2]; Fig 5): 5600 nM
- ID50: WT ([1]; Fig 5): 10 nM
- EC50 ([3]; Fig 5): 3900 nM
- EC50 (HIV-1 NL4-3 wt; [5]): 0.3 nM
- EC50 ([4]; Fig 5): 1100 nM
- CC50 (mock-infected cells; Fig 5): > 73000 nM
- ID50: L100I (L100I HIV-1 RT; Fig 5): 600 nM

Molecule: CC(c1cc(=O)[nH]c(SC2CCCC2)n1)c1c(F)cccc1Cl (centres unmarked) [compound 40]
- EC50 ([2]; Fig 5): > 71000 nM
- ID50: WT ([1]; Fig 5): 15 nM
- EC50 ([3]; Fig 5): 3000 nM
- EC50 (HIV-1 NL4-3 wt; [5]): 0.3 nM
- EC50 ([4]; Fig 5): 900 nM
- CC50 (mock-infected cells; Fig 5): > 71000 nM
- ID50: L100I (L100I HIV-1 RT; Fig 5): 1100 nM

Molecule: Cc1c(C(C)c2c(F)cccc2Cl)nc(SC(C)C)[nH]c1=O (centres unmarked) [compound 41]
- EC50 ([2]; Fig 5): 3400 nM
- EC50 ([3]; Fig 5): 250 nM
- EC50 ([4]; Fig 5): 140 nM
- CC50 (mock-infected cells; Fig 5): > 15000 nM

Molecule: CCCSc1nc(C(C)c2c(F)cccc2Cl)c(C)c(=O)[nH]1 (centres unmarked) [compound 42]
- EC50 ([2]; Fig 5): > 1500 nM
- ID50: WT ([1]; Fig 5): 0.9 nM
- EC50 ([3]; Fig 5): 260 nM
- EC50 (HIV-1 NL4-3 wt; [5]): 0.05 nM
- EC50 ([4]; Fig 5): 350 nM
- CC50 (mock-infected cells; Fig 5): > 1500 nM
- ID50: L100I (L100I HIV-1 RT; Fig 5): 90 nM

Molecule: Cc1c(C(C)c2c(F)cccc2Cl)nc(SC2CCCC2)[nH]c1=O (centres unmarked) [compound 43]
- EC50 ([2]; Fig 5): 2900 nM
- ID50: WT ([1]; Fig 5): 11 nM
- EC50 ([3]; Fig 5): 230 nM
- EC50 (HIV-1 NL4-3 wt; [5]): 0.03 nM
- EC50 ([4]; Fig 5): 93 nM
- CC50 (mock-infected cells; Fig 5): > 15000 nM
- ID50: L100I (L100I HIV-1 RT; Fig 5): 120 nM

Molecule: Cc1cc(=O)[nH]c(SCCN2C(=O)c3ccccc3C2=O)n1 [compound 74]
- SI (HIV-1; Fig 9): 61.6

Molecule: O=C1c2ccccc2C(=O)N1CCSc1nc(Cc2c(F)cccc2F)cc(=O)[nH]1 [compound 75]
- EC50 (HIV-1; Fig 9): 17000 nM
- SI (HIV-1; Fig 9): > 5.9
- CC50 (mock-infected cells; Fig 9): > 100000 nM

Molecule: CCc1c(Cc2ccccc2Br)nc(SCc2ccc(OC)cc2)[nH]c1=O [compound 87]
- SI (HIV-1; Fig 9): 717
- IC50 (HIV-1; Fig 9): 230 nM
- CC50 (mock-infected cells; Fig 9): 165000 nM

Molecule: CCc1c(Cc2ccccc2Br)nc(SCc2ccc([N+](=O)[O-])cc2)[nH]c1=O [compound 88]
- SI (HIV-1; Fig 9): > 368
- IC50 (HIV-1; Fig 9): 740 nM
- CC50 (mock-infected cells; Fig 9): > 272000 nM

Molecule: CCc1c(Cc2cccc(Br)c2)nc(SCc2ccc(OC)cc2)[nH]c1=O [compound 89]
- SI (HIV-1; Fig 9): 718
- IC50 (HIV-1; Fig 9): 280 nM
- CC50 (mock-infected cells; Fig 9): 201000 nM

Molecule: CCc1c(Cc2cc(C)cc(C)c2)nc(SCc2ccc(OC)cc2)[nH]c1=O [compound 90]
- SI (HIV-1; Fig 9): > 2642
- IC50 (HIV-1; Fig 9): 120 nM
- CC50 (mock-infected cells; Fig 9): > 317000 nM

Molecule: CCc1c(Cc2cc(C)cc(C)c2)nc(SCc2ccc([N+](=O)[O-])cc2)[nH]c1=O [compound 91]
- SI (HIV-1; Fig 9): > 1906
- IC50 (HIV-1; Fig 9): 160 nM
- CC50 (mock-infected cells; Fig 9): > 305000 nM

Molecule: CC(=O)c1ccc(Cn2cc(CSc3nc(Cc4c(Cl)cccc4Cl)c(C)c(=O)[nH]3)nn2)cc1 [compound 92]
- EC50 (HIV-1; Fig 9): 3860 nM
- SI (HIV-1; Fig 9): 8

Molecule: Cc1c(Cc2c(Cl)cccc2Cl)nc(SCc2cn(Cc3ccc(S(N)(=O)=O)cc3)nn2)[nH]c1=O [compound 93]
- EC50 (HIV-1; Fig 9): 3220 nM
- SI (HIV-1; Fig 9): 30

Molecule: COc1ccc(Cn2cc(CSc3nc(Cc4c(Cl)cccc4Cl)c(C)c(=O)[nH]3)nn2)cc1 [compound 94]
- SI (HIV-1; Fig 9): 6

Molecule: CCc1c(Cc2c(Cl)cccc2Cl)nc(SCC(=O)c2ccccc2)[nH]c1=O [compound 101]
- EC50 ([2]; Fig 10): 5000 nM
- Fold-resistance Y188L (EC50) [2]: 714
- ID50: WT ([1]; Fig 10): 71 nM
- SI (HIV-1; Fig 10): > 7429
- ID50: Y181I (Y181I HIV-1 RT): 330 nM
- Fold-resistance Y181I RT (ID50) (Y181I HIV-1 RT): 5
- EC50 ([3]; Fig 10): 46 nM
- Fold-resistance Y181C (EC50) [3]: 7
- EC50 (HIV-1 NL4-3 wt; [6]): 7 nM
- EC50 ([4]; Fig 10): 1200 nM
- Fold-resistance K103N (EC50) [4]: 171
- CC50 (mock-infected cells; Fig 10): > 52000 nM
- ID50: L100I (L100I HIV-1 RT; Fig 10): 3540 nM
- Fold-resistance L100I RT (ID50) (L100I HIV-1 RT): 50

Molecule: CC(C)c1c(Cc2c(Cl)cccc2Cl)nc(SCC(=O)c2ccccc2)[nH]c1=O [compound 102]
- EC50 ([2]; Fig 10): 5500 nM
- Fold-resistance Y188L (EC50) [2]: 1375
- ID50: WT ([1]; Fig 10): 31 nM
- SI (HIV-1; Fig 10): > 14000
- ID50: Y181I (Y181I HIV-1 RT): 16800 nM
- Fold-resistance Y181I RT (ID50) (Y181I HIV-1 RT): 542
- EC50 ([3]; Fig 10): 110 nM
- Fold-resistance Y181C (EC50) [3]: 27
- EC50 (HIV-1 NL4-3 wt; [6]): 4 nM
- EC50 ([4]; Fig 10): 5100 nM
- Fold-resistance K103N (EC50) [4]: 1275
- CC50 (mock-infected cells; Fig 10): > 56000 nM
- ID50: L100I (L100I HIV-1 RT; Fig 10): 10100 nM
- Fold-resistance L100I RT (ID50) (L100I HIV-1 RT): 326

Molecule: Cc1c(Cc2c(Cl)cccc2Cl)nc(SCC(=O)Nc2ccc(Cl)cc2)[nH]c1=O [compound 105]
- SI (HIV-1; Fig 10): > 836
- CC50 (mock-infected cells; Fig 10): > 267000 nM

Molecule: Cc1c(Cc2c(Cl)cccc2Cl)nc(SCC(=O)Nc2ccc(Br)cc2)[nH]c1=O [compound 106]
- SI (HIV-1; Fig 10): > 1326
- CC50 (mock-infected cells; Fig 10): > 244000 nM

Molecule: Cc1c(Cc2c(Cl)cccc2Cl)nc(SCC(=O)Nc2ccc(F)c(F)c2)[nH]c1=O [compound 108]
- SI (HIV-1; Fig 10): > 387
- CC50 (mock-infected cells; Fig 10): > 266000 nM

Molecule: COc1ccc(CSc2nc(C(C)c3c(F)cccc3F)c(C)c(=O)[nH]2)cc1 (centres unmarked) [compound 140, 6-[1-(2,6-difluorophenyl)ethyl]-2-[(4-methoxybenzyl)thio]-5-methyl-4(3H)-pyrimidinone]
- EC50 (HIV-1 NL4-3 wt; [7]): 0.025 nM

Molecule: Cc1c(C(C)c2c(F)cccc2F)nc(SCc2ccc(C#N)cc2)[nH]c1=O (centres unmarked) [compound 141]
- EC50 (HIV-1 NL4-3 wt; [7]): 7.8 nM

Molecule: Cc1c(C(C)c2c(F)cccc2F)nc(SCc2ccc([N+](=O)[O-])cc2)[nH]c1=O (centres unmarked) [compound 142]
- EC50 (HIV-1 NL4-3 wt; [7]): 3.3 nM

Molecule: COc1cc(F)c(C(=O)c2ccnc(Nc3ccc(C#N)cc3)n2)c(F)c1 [compound 169]
- EC50: Y181C ([3]; Fig 12, DAPY-DABO carbonyl hybrids): no activity

Molecule: CCN(CC)CCc1cc(=O)[nH]c(SC)n1 [compound 184]
- CC50 (mock-infected cells): 250 µg/mL
